Consider 43 compounds from PubChem BioAssay AID651807 (Broad Institute, 2012).

“And” between values parts separate entries of the source, which are not always exact repeats. Identical values can stand only once. Inconclusive results are not listed. The source made the active and inactive calls.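 The calls were made as follows: active = fitted curve rises past 40% activation at or below the top valid concentration, in every replicate test; inconclusive = replicate tests give mixed outcomes; inactive = all replicate tests inactive, or signal moves in the opposite direction.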

For experiment [1], the system named is ARE-bla HepG2, beta-lactamase FRET ratio 460/530. Description: ARE-bla reporter activation in HepG2 – cell-based, beta-lactamase, dry powder, set 4, Keap1-Nrf2 interaction inhibitor project, dose response (AID 651807).
Assay in experiment [2]: as above
The conditions noted are these: ARE-bla HepG2, beta-lactamase FRET ratio 460/530.

Consider `Cc1ccc(S(=O)(=O)Nc2cc(C(C(=O)OC(C)C)C(=O)C(F)(F)F)c(O)c3ccccc23)c(C)c1` (stereo not drawn), for which the AC40 in experiment [1] was 10.5 µM. On to `O=C(Cc1ccccc1)NC[C@@H]1c2ccccc2CCN1C(=O)[C@@H]1CCCC[C@@H]1C(=O)O`, for which the activation in experiment [2] (at 68 µM (top of the series)) was 6.95% (inactive). As to `O=C(NC[C@@H]1c2ccccc2CCN1C(=O)[C@@H]1CCCC[C@@H]1C(=O)O)OCC1c2ccccc2-c2ccccc21`, the activation in experiment [2] (at 68 µM (top of the series)) was -31.2% (inactive). Turning to `O=C(O)C1CCCCC1C(=O)N1CCc2ccccc2[C@H]1C(=O)NCCc1ccccc1` (stereo partly drawn), the activation in experiment [2] (at 68 µM (top of the series)) is 2.65% (inactive). Regarding `Cc1cc(C)c(S(=O)(=O)Nc2nc(C(C(=O)OC(C)C)C(=O)C(F)(F)F)nc3ccccc23)c(C)c1` (stereo not drawn), the AC40 in experiment [1] was 27.3 µM. In the case of `O=C(NC[C@@H]1c2ccccc2CCN1C(=O)[C@@H]1CCCC[C@@H]1C(=O)O)c1ccccc1`, the activation in experiment [2] (at 68 µM (top of the series)) is 6.57% (inactive). `O=C1c2ccccc2C(=O)N1C[C@H]1NCCc2ccccc21`: in experiment [2] (at 68 µM (top of the series)), the activation is 43.8% (inactive). `Cc1ccc(S(=O)(=O)Nc2cc(C(C(=O)OC(C)C)C(=O)C(F)(F)F)c(O)c3ccccc23)cc1` (stereo not drawn): the AC40 in experiment [1] was 9.52 µM. With `O=C(O)[C@H]1CCCC[C@H]1C(=O)N1CCc2ccccc2C1CCN1C(=O)c2ccccc2C1=O` (stereo partly drawn), the activation in experiment [2] (at 68 µM (top of the series)) is 17.3% (inactive). Regarding `O=C(O)C1CCCCC1C(=O)Nc1ccccc1CN1C(=O)c2ccccc2C1=O` (stereo not drawn), the activation in experiment [2] (at 68 µM (top of the series)) was 6.93% (inactive). `O=C(O)[C@@H]1CCCN1C(=O)N1CCc2ccccc2[C@H]1CN1C(=O)c2ccccc2C1=O`: in experiment [2] (at 68 µM (top of the series)), the activation is 27% (inactive).

As to `O=C(O)C1CCCCC1C(=O)N1CCCCC1CN1C(=O)c2ccccc2C1=O` (stereo not drawn), in experiment [2] (at 68 µM (top of the series)), the activation was 16.6% (inactive). With `Cc1cc(C)c(S(=O)(=O)Nc2nc(NCCO)nc3ccccc23)c(C)c1`, the activation in experiment [2] (at 68 µM (top of the series)) is -10.1% (inactive). For `O=S(=O)(Nc1nc(NCC2CCCCC2)nc2ccccc12)c1ccccc1`, the AC40 in experiment [1] was 32.2 µM. As for `Cc1ccc(S(=O)(=O)NNc2nc(C(C(=O)OC(C)C)C(=O)C(F)(F)F)nc3ccccc23)cc1` (stereo not drawn), in experiment [1], the AC40 was 33 µM. As for `COc1ccccc1CCNC(=O)[C@@H]1c2ccccc2CCN1C(=O)C1CCCCC1C(=O)O` (stereo partly drawn), the activation in experiment [2] (at 68 µM (top of the series)) is -0.279% (inactive). For `O=C(NC[C@@H]1c2ccccc2CCN1C(=O)[C@@H]1CCCC[C@@H]1C(=O)O)c1ccc(CN2CCOCC2)cc1`, the activation in experiment [2] (at 68 µM (top of the series)) is 13.2% (inactive). `O=C(O)[C@H]1CCCC[C@H]1C(=O)NC(CN1C(=O)c2ccccc2C1=O)c1ccccc1` (stereo partly drawn): in experiment [2] (at 68 µM (top of the series)), the activation was 25.2% (inactive). As for `O=C(O)c1ccccc1C(=O)N1CCc2ccccc2C1CN1C(=O)c2ccccc2C1=O` (stereo not drawn), the AC40 in experiment [1] is 41.3 µM. Take `Cc1ccccc1S(=O)(=O)Nc1cc(C(C(=O)OC(C)C)C(=O)C(F)(F)F)c(O)c2ccccc12` (stereo not drawn): in experiment [1], the AC40 was 8.84 µM. As for `O=C(O)CC(=O)N1CCc2ccccc2C1CN1C(=O)c2ccccc2C1=O` (stereo not drawn), the activation in experiment [2] (at 68 µM (top of the series)) was 31.6% (inactive).

`Cc1cc(C)c(S(=O)(=O)Nc2cc(C(C(=O)OC(C)C)C(=O)C(F)(F)F)c(O)c3ccccc23)c(C)c1` (stereo not drawn): in experiment [1], the AC40 was 4.2 µM. As for `O=C(NCCc1ccccc1)c1ccccc1C(=O)NC[C@@H]1c2ccccc2CCN1C(=O)C1CCCCC1C(=O)O` (stereo partly drawn), in experiment [1], the AC40 is 17 µM. For the compound `O=C(O)C1CCCCC1C(=O)N1CCc2ccccc2C1CN1C(=O)[C@H]2CCCC[C@H]2C1=O` (stereo partly drawn), in experiment [1], the AC40 was 29.1 µM. With `COc1ccc(CCN=C2C=C(NS(=O)(=O)c3c(C)cc(C)cc3C)c3ccccc3C2=O)cc1`, the AC40 in experiment [1] was 10.6 µM. Turning to `COC(=O)[C@@H]1CCCC[C@@H]1C(=O)N1CCc2ccccc2[C@H]1CN1C(=O)c2ccccc2C1=O`, the activation in experiment [2] (at 68 µM (top of the series)) is 25.5% (inactive). Turning to `O=C(O)C1CCCCC1C(=O)N1CCc2ccccc2C1CN1C(=O)c2ccccc2S1(=O)=O` (stereo not drawn), the activation in experiment [2] (at 68 µM (top of the series)) is 35% (inactive). Regarding `CC(C)OC(=O)C(C(=O)C(F)(F)F)c1cc(NS(=O)(=O)c2ccccc2)c2ccccc2c1O` (stereo not drawn), the AC40 in experiment [1] was 27.2 µM. As for `COC(=O)CNc1nc(NS(=O)(=O)c2c(C)cc(C)cc2C)c2ccccc2n1`, the activation in experiment [2] (at 68 µM (top of the series)) was -4.15% (inactive). In the case of `O=C(NC[C@@H]1c2ccccc2CCN1C(=O)[C@@H]1CCCC[C@@H]1C(=O)O)c1ccccc1CO`, the activation in experiment [2] (at 68 µM (top of the series)) is 11% (inactive). On to `O=C(O)C1CCCCC1C(=O)N1CCc2ccccc2[C@H]1C(=O)NC12CC3CC(CC(C3)C1)C2` (stereo partly drawn), for which the AC40 in experiment [1] is 45.6 µM. Regarding `O=C(O)[C@H]1CCCC[C@H]1C(=O)N1CCc2ccccc2[C@H]1CNc1nc(Cl)nc2ccccc12`, in experiment [2] (at 68 µM (top of the series)), the activation was -4.32% (inactive). Same read-out and setting: in the case of `O=C(O)C1CCCCC1C(=O)NCC1c2ccccc2CCN1C(=O)Cc1ccccc1` (stereo not drawn) it was 20.2% (inactive). On to `Cc1ccc(S(=O)(=O)NNc2nc(N3CC(O)CC3C(=O)O)nc3ccccc23)cc1` (stereo not drawn), for which the AC40 in experiment [1] is 13.5 µM.

As to `Cc1ccc(S(=O)(=O)NC(=O)[C@@H]2c3ccccc3CCN2C(=O)[C@@H]2CCCC[C@@H]2C(=O)O)cc1`, the activation in experiment [2] (at 68 µM (top of the series)) was 13.2% (inactive) and 28.7% (inactive). In the case of `O=C1c2ccccc2C(=O)N1CC1c2ccccc2CCN1C(=O)Cc1ccccc1` (stereo not drawn), the activation in experiment [2] (at 16 µM (top of the series)) was 14.7% (inactive). Turning to `O=C1c2ccccc2C(=O)N1CC1=NCCc2ccccc21`, the activation in experiment [2] (at 68 µM (top of the series)) was 9.14% (inactive). In the case of `Cc1cc(C)c(S(=O)(=O)Nc2cc(C(C(=O)OCc3ccccc3)C(=O)OCc3ccccc3)c(O)c3ccccc23)c(C)c1`, in experiment [1], the AC40 was 32.7 µM. On the same count and under the same terms, in the case of `NC(=O)c1ccccc1C(=O)NC[C@@H]1c2ccccc2CCN1C(=O)[C@@H]1CCCC[C@@H]1C(=O)O` it was 48.7 µM. In the case of `Cc1cc(C)c(S(=O)(=O)Nc2nc(N(C)C)nc3ccccc23)c(C)c1`, in experiment [2] (at 68 µM (top of the series)), the activation is -5.99% (inactive). As for `O=C(O)c1ccccc1C(=O)NC[C@@H]1c2ccccc2CCN1C(=O)[C@@H]1CCCC[C@@H]1C(=O)O`, the activation in experiment [2] (at 68 µM (top of the series)) was 23.5% (inactive). Regarding `O=C1c2ccccc2C(=O)N1C[C@@H]1c2ccccc2CCN1C(=O)OCc1ccccc1`, the AC40 in experiment [1] was 38.2 µM.

Regarding `Cc1ccc(S(=O)(=O)NC[C@@H]2c3ccccc3CCN2C(=O)[C@@H]2CCCC[C@@H]2C(=O)O)c(C)c1`, the activation in experiment [2] (at 68 µM (top of the series)) was 29.9% (inactive).
